Test results: US20260209228A1 (Elanco Tiergesundheit AG, priority 2018, published 2026)

Columns and labels:
[1] = system: D. immitis microfilariae; test: Dog heart worm microfilariae motility inhibition (Example A); assay type: cell-based; conditions: read-out: EC50 (motility inhibition)
[2] = system: H. contortus (H.c.) larvae; test: Ruminant gastrointestinal H. contortus larvae motility inhibition (Example B); conditions: Haemonchus contortus, read-out: EC50 (motility inhibition)
Protocol: H.c. eggs isolated from lamb fecal matter are allowed to hatch overnight. Test compounds are diluted in DMSO and added to a 96-well plate containing appropriate media. H.c. larvae are added to each well and plates are incubated for the desired time(s). Motility is assessed using an LCD camera imaging system. Percent motility inhibition values are generated relative to the average of the DMSO-only wells.

[3] = system: H. contortus; test: Gastro intestinal nematodes jird model, H. contortus only (Example C); conditions: jirds; H. contortus from stomach; oral, Day 6 after infection, dose between 1×3 mg/kg and 1×32 mg/kg; necropsy three days after treatment
Protocol: Jirds (Meriones unguiculatus), are artificially infected by gavage with third instar larvae each of T. colubriformis and H. contortus. Then treated orally with the test compound formulated in eg DMSO/PEG 2/1, on Day 6 after infection at a dose in a range between 1×3 mg/kg up to 1×32 mg/kg. Three days after treatment, gerbils are euthanized and dissected to recover H. contortus from stomach and T. colubriformis from the small intestine. Efficacy is expressed as a % reduction in worm numbers in comparison with a placebo treated group, using the Abbot's formula.

[4] = system: L. sigmodontis; test: L.s. model (Example E); conditions: mice infected s.c. with L. sigmodontis larvae; oral gavage, dose between 1×3 mg/kg and 5×32 mg/kg; necropsy 5 weeks after infection
Protocol: Mice, injected subcutaneously with infective L. sigmodontis larvae, were subsequently treated with the test article formulated in eg DMSO/PEG 2/1, by oral gavage at a dose in a range between 1×3 mg/kg up to 5×32 mg/kg (one dose per day for 5 consecutive days). At necropsy 5 weeks after infection, efficacy is calculated by counting developed larvae vs. untreated animals using Abbot's formula.

| Compound | EC50 [1] [µg/mL] | EC50 [2] [µg/mL] | efficacy against He (% reduction in worm numbers vs placebo treated group, Abbot's formula) [3] [%] | efficacy (developed larvae vs. untreated animals, Abbot's formula) [4] [%] |
| --- | --- | --- | --- | --- |
| CN(C)c1c(C(=O)N[C@H]2CCOc3ccccc32)cnc2c(-c3cccc(Cl)c3Cl)nccc12 [Example 1.55, N-[(4S)-chroman-4-yl]-8-(2,3-dichlorophenyl)-4-(dimethylamino)-1,7-naphthyridine-3-carboxamide] | < 0.1 | < 1 |  |  |
| CN(C)c1c(C(=O)N[C@H]2CCOc3ccccc32)cnc2c(-c3cc(C(F)(F)F)cc(C(F)(F)F)c3)nccc12 [Example 1.52, 8-[3,5-bis(trifluoromethyl)phenyl]-N-[(4S)-chroman-4-yl]-4-(dimethylamino)-1,7-naphthyridine-3-carboxamide] | < 0.1 |  |  |  |
| CN(C)c1c(C(=O)N[C@H]2CCOc3ccccc32)ccc2c(-c3cc(Cl)cc(Cl)c3)nccc12 [Example 4.1, N-[(4S)-chroman-4-yl]-1-(3,5-dichlorophenyl)-5-(dimethylamino)isoquinoline-6-carboxamide] | < 0.1 | < 1 |  |  |
| O=C(N[C@H]1CCOc2ccccc21)c1cnc2c(-c3cc(Cl)cc(Cl)c3)nccc2c1N1CCOCC1 [Example 1.9, N-[(4S)-chroman-4-yl]-8-(3,5-dichlorophenyl)-4-morpholino-1,7-naphthyridine-3-carboxamide] | < 0.1 | < 1 |  |  |
| CN(C)c1c(C(=O)N[C@H]2CCOc3ccccc32)cnc2c(-c3ccccc3F)nccc12 [Example 1.49, N-[(4S)-chroman-4-yl]-8-(2-fluorophenyl)-4-(dimethylamino)-1,7-naphthyridine-3-carboxamide] | < 0.1 |  |  |  |
| C[C@H]1COc2ccccc2[C@H]1NC(=O)c1cnc2c(-c3cc(Cl)cc(Cl)c3)nccc2c1N(C)C (racemic) [Example 1.39, 8-(3,5-dichlorophenyl)-4-(dimethylamino)-N-[rac-(3R,4S)-3-methylchroman-4-yl]-1,7-naphthyridine-3-carboxamide] | < 0.1 | < 1 |  |  |
| CN(C)c1c(C(=O)N[C@H]2CCOc3ccccc32)ccc2c(-c3cc(Cl)cc(Cl)c3)ccnc12 [Example 6.1, N-[(4S)-Chroman-4-yl]-4-(3,5-dichlorophenyl)-8-(dimethylamino)quinoline-7-carboxamide] | < 0.1 | < 1 |  |  |
| CN(C)c1c(C(=O)N[C@H]2CCOc3ccccc32)cnc2c(-c3cc(Cl)cc(Cl)c3)nccc12 [Example 1.1, N-[(4S)-chroman-4-yl]-8-(3,5-dichlorophenyl)-4-(dimethylamino)-1,7-naphthyridine-3-carboxamide] | < 0.1 | < 1 |  |  |
| CN(C)c1c(C(=O)N[C@H]2CCOc3ccccc32)cnc2c(-c3ccc(Cl)cc3Cl)nccc12 [Example 1.54, N-[(4S)-chroman-4-yl]-8-(2,4-dichlorophenyl)-4-(dimethylamino)-1,7-naphthyridine-3-carboxamide] | < 0.1 | < 1 |  |  |
| CN(C)c1c(C(=O)N[C@H]2CCCc3ccccc32)cnc2c(-c3cc(Cl)cc(Cl)c3)nccc12 [Example 1.32, 8-(3,5-dichlorophenyl)-4-(dimethylamino)-N-[(1S)-tetralin-1-yl]-1,7-naphthyridine-3-carboxamide] | < 0.1 | < 1 |  |  |
| CN(C)c1c(C(=O)N[C@H]2CCOc3ccccc32)ncc2c(-c3cc(Cl)cc(Cl)c3)nccc12 [Example 3.1, N-[(4S)-chroman-4-yl]-8-(3,5-dichlorophenyl)-4-(dimethylamino)-2,7-naphthyridine-3-carboxamide] |  | < 1 |  |  |
| CN(C)c1c(C(=O)N[C@H]2CCOc3ccccc32)cnc2c(-c3cc(F)cc(F)c3)nccc12 [Example 1.48, N-[(4S)-chroman-4-yl]-8-(3,5-difluorophenyl)-4-(dimethylamino)-1,7-naphthyridine-3-carboxamide] | < 0.1 | < 1 |  |  |
| CN(C)c1c(C(=O)N[C@H]2CCOc3ccccc32)cnc2c(N3CCc4cc(Cl)ccc43)nccc12 [Example 1.7, 8-(5-chloroindolin-1-yl)-N-[(4S)-chroman-4-yl]-4-(dimethylamino)-1,7-naphthyridine-3-carboxamide] |  | < 1 |  |  |
| O=C(N[C@H]1CCOc2ccccc21)c1cnc2c(-c3cc(Cl)cc(Cl)c3)nccc2c1Cl [Example 1.30, 4-chloro-N-[(4S)-chroman-4-yl]-8-(3,5-dichlorophenyl)-1,7-naphthyridine-3-carboxamide] | < 0.1 |  |  |  |
| CN(C)c1c(C(=O)N[C@H]2CCOc3ccccc32)cnc2c(-c3cc(F)c(F)c(F)c3)nccc12 [Example 1.51, N-[(4S)-chroman-4-yl]-4-(dimethylamino)-8-(3,4,5-trifluorophenyl)-1,7-naphthyridine-3-carboxamide] | < 0.1 | < 1 |  |  |
| Nc1c(C(=O)N[C@H]2CCOc3ccccc32)cnc2c(-c3cc(Cl)cc(Cl)c3)nccc12 [Example 1.12, 4-amino-N-[(4S)-chroman-4-yl]-8-(3,5-dichlorophenyl)-1,7-naphthyridine-3-carboxamide] | < 0.1 | < 1 |  |  |

| Compound | EC50 [1] [µg/mL] | EC50 [2] [µg/mL] | efficacy against He (% reduction in worm numbers vs placebo treated group, Abbot's formula) [3] [%] | efficacy (developed larvae vs. untreated animals, Abbot's formula) [4] [%] |
| --- | --- | --- | --- | --- |
| CN(C)c1c(C(=O)N[C@H]2CCOc3ccccc32)ncc2c(-c3cc(Cl)cc(Cl)c3)cccc12 [Example 2.1, N-[(4S)-chroman-4-yl]-8-(3,5-dichlorophenyl)-4-(dimethylamino) isoquinoline-3-carboxamide] | < 0.1 | < 1 |  |  |
| Cc1ccc2c(c1)OCC[C@@H]2NC(=O)c1cnc2c(-c3cc(Cl)cc(Cl)c3)nccc2c1N(C)C [Example 1.45, 8-(3,5-dichlorophenyl)-4-(dimethylamino)-N-[(4S)-7-methylchroman-4-yl]-1,7-naphthyridine-3-carboxamide] | < 0.1 | < 1 |  |  |
| N#CCc1c(C(=O)N[C@H]2CCOc3ccccc32)cnc2c(-c3cc(Cl)cc(Cl)c3)nccc12 [Example 1.38, N-[(4S)-chroman-4-yl]-4-(cyanomethyl)-8-(3,5-dichlorophenyl)-1,7-naphthyridine-3-carboxamide] | < 0.1 | < 1 |  |  |
| CN(C)c1c(C(=O)N[C@@H]2CCOc3ccsc32)cnc2c(-c3cc(Cl)cc(Cl)c3)nccc12 [Example 1.47, 8-(3,5-dichlorophenyl)-N-[(7R)-6,7-dihydro-5H-thieno[3,2-b]pyran-7-yl]-4-(dimethylamino)-1,7-naphthyridine-3-carboxamide] | < 0.1 | < 1 |  |  |
| CN(C)c1c(C(=O)N[C@H]2CCOc3ccccc32)ccc2c(-c3cc(Cl)cc(Cl)c3)cccc12 [Example 5.1] | < 0.1 | < 1 |  |  |
| O=C(N[C@H]1CCOc2ccccc21)c1cnc2c(-c3cc(Cl)cc(Cl)c3)nccc2c1C1CC1 [Example 1.20, N-[(4S)-chroman-4-yl]-4-cyclopropyl-8-(3,5-dichlorophenyl)-1,7-naphthyridine-3-carboxamide] | < 0.1 | < 1 |  |  |
| CN(C)c1c(C(=O)N[C@H]2CCOc3cc(F)ccc32)cnc2c(-c3cc(Cl)cc(Cl)c3)nccc12 [Example 1.17, 8-(3,5-dichlorophenyl)-4-(dimethylamino)-N-[(4S)-7-fluorochroman-4-yl]-1,7-naphthyridine-3-carboxamide] | < 0.1 | < 1 |  |  |
| COc1c(C(=O)N[C@H]2CCOc3ccccc32)cnc2c(-c3cc(Cl)cc(Cl)c3)nccc12 [Example 1.33, N-[(4S)-chroman-4-yl]-8-(3,5-dichlorophenyl)-4-methoxy-1,7-naphthyridine-3-carboxamide] | < 0.1 | < 1 |  |  |
| CN(C)c1c(C(=O)N[C@H]2CCOc3ccccc32)cnc2c(-c3cc(F)cc(F)c3F)nccc12 [Example 1.50, N-[(4S)-chroman-4-yl]-4-(dimethylamino)-8-(2,3,5-trifluorophenyl)-1,7-naphthyridine-3-carboxamide] | < 0.1 | < 1 | > 90 |  |
| CON(C)c1c(C(=O)N[C@H]2CCOc3ccccc32)cnc2c(-c3cc(Cl)cc(Cl)c3)nccc12 [Example 1.31, N-[(4S)-chroman-4-yl]-8-(3,5-dichlorophenyl)-4-[methoxy(methyl)amino]-1,7-naphthyridine-3-carboxamide] | < 0.1 | < 1 |  |  |
| COc1ccc(F)c(-c2nccc3c(N(C)C)c(C(=O)N[C@H]4CCOc5ccccc54)cnc23)c1F [Example 1.24, N-[(4S)-chroman-4-yl]-8-(2,6-difluoro-3-methoxyphenyl)-4-(dimethylamino)-1,7-naphthyridine-3-carboxamide] | < 0.1 | < 1 |  |  |
| CN(C)c1c(C(=O)N[C@H]2CCOc3ccccc32)ccc2c(-c3cc(Cl)cc(Cl)c3)cncc12 [Example 7.1, N-[(4S)-Chroman-4-yl]-4-(3,5-dichlorophenyl)-8-(dimethylamino)isoquinoline-7-carboxamide] | < 0.1 | < 1 |  |  |
| CN(C)c1c(C(=O)N[C@H]2CCOc3ccccc32)cnc2c(-n3ccc4cc(Cl)ccc43)nccc12 [Example 1.8] | < 0.1 | < 1 |  | > 70 |
| O=C1CN(c2c(C(=O)N[C@H]3CCOc4ccccc43)cnc3c(-c4cc(Cl)cc(Cl)c4)nccc23)CN1 [Example 1.37, N-[(4S)-chroman-4-yl]-8-(3,5-dichlorophenyl)-4-(4-oxoimidazolidin-1-yl)-1,7-naphthyridine-3-carboxamide] | < 0.1 | < 1 |  |  |
| CC(C)c1c(C(=O)N[C@H]2CCOc3ccccc32)cnc2c(-c3cc(Cl)cc(Cl)c3)nccc12 [Example 1.42, N-[(4S)-chroman-4-yl]-8-(3,5-dichlorophenyl)-4-isopropyl-1,7-naphthyridine-3-carboxamide] | < 0.1 | < 1 |  |  |
| CN(C)c1c(C(=O)N[C@H]2CCc3ccccc32)cnc2c(-c3cc(Cl)cc(Cl)c3)nccc12 [Example 1.21, 8-(3,5-dichlorophenyl)-4-(dimethylamino)-N-[(1S)-indan-1-yl]-1,7-naphthyridine-3-carboxamide] | < 0.1 | < 1 |  |  |
